Test results: ChEMBL document CHEMBL1130184, “Effect of a chemical modification on the hydrated adenosine intermediate produced by adenosine deaminase and a model reaction for a potential mechanism of action of 5-aminoimidazole ribonucleotide carboxylase” (J Med Chem, 1997)
One block for each compound: values may come before it.

Assays:
[1] = molecular target: T1, Adenosine deaminase (Bos taurus) (UniProt P56658); assay: Inhibitory activity of compound at 25 uM against adenosine deaminase
T1 sequence (whole entry): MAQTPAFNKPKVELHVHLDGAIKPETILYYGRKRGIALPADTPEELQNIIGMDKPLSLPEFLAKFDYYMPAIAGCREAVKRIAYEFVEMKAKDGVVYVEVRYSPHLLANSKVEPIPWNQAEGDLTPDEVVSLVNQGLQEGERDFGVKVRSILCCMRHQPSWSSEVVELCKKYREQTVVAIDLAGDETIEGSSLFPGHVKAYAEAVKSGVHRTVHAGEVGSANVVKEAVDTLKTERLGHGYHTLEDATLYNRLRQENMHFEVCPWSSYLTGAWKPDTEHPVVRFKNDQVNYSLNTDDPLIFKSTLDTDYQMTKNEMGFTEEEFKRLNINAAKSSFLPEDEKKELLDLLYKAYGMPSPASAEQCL

Adenosine deaminase [2] = molecular target: T2, Adenosine deaminase (Bos taurus, UniProt P56658); assay: Inhibitory activity against adenosine deaminase
T2 sequence (P56658 whole entry): T1 sequence (whole entry)

Adenosine deaminase [3] = molecular target: T2, Adenosine deaminase; assay: Apparent binding constant against adenosine deaminase

inhibition [1]: 15%
SMILES: Nc1ncnc2c1ncn2[C@@H]1O[C@H](CO)[C@@H](O)[C@H]1O

SMILES: Nc1ccnc2c1ncn2[C@@H]1O[C@H](CO)[C@@H](O)[C@H]1O
Ki (Adenosine deaminase [2]): 0.18 µM

Ki (Adenosine deaminase [3]): 40 µM
SMILES: O=CNc1cn([C@@H]2O[C@H](CO)[C@@H](O)[C@H]2O)cn1
